Source: patent US20040248991A1, “Compositions for lessening oxidative stress” (priority 2001, published 2004)

Key:
rats = details: continuous administration, 1200 mg/kg/day for 52 weeks; cited from earlier work
[1] = cited from earlier work
urinary 8OH-dG [2] = experiment: Oxidative stress lessening effect on spontaneously diabetic mouse (urinary 8OH-dG); format: in vivo; details: KK-Ay mice, 4 weeks
Procedure: (§1) The effect of lessening oxidative stress in vivo was evaluated with urinary 8-hydroxydeoxyguanosine (8OH-dG) having high effectiveness as an oxidative stress marker. This material results from nucleic acid damage due to oxidative stress, and is discharged into urine without undergoing further metabolism. It is thus thought that the amount of oxidative stress in vivo and the amount of 8OH-dG discharged have a close relationship therebetween. A decrease in amount of the material in urine means a reduction in oxidative stress in vivo and the prevention of damage to nucleic acid.
The dose dependency of the oxidative stress lessening effect of each of reduced and oxidized coenzyme Q10 was evaluated by the same method as that used for GK rats except that KK-Ay mice with spontaneous diabetes and having a higher blood sugar level than that of GK rats were used. KK-Ay 5-week old male mice were used, and evaluated in groups in each of which n=11. Oxidized coenzyme Q10 or reduced coenzyme Q10 (containing about 2% by weight of oxidized coenzyme Q10) was mixed with a purified feed (produced by CLEA JAPAN, INC.) at each of ratios of 0.02% by weight, 0.1% by weight, and 0.5% by weight, and each mixture was freely given to the KK-Ay mice. In a control group, the purified feed not containing coenzyme Q10 was freely given to rats. 4 weeks after the supply, urine was collected, and the amount of urinary 8OH-dG was determined by the same method as in Example 1. […] In the reduced coenzyme Q10 administration group, with a dose of 0.02% by weight, the lessening effect was low (82% of the control group), while with a dose of 0.1% by weight or more, the lessening effect was significant (dose of 0.1% by weight: 73% of the control group, dose of 0.5% by weight: 56% of the control group). In the oxidized coenzyme Q10 administration group, the dose-dependent lessening effect was observed without showing a significant difference, and with a dose of 0.5% by weight, the amount of urinary 8OH-dG was 78% of that of the control group.

urinary 8OH-dG [3] = experiment: Oxidative stress lessening effect on spontaneously diabetic rat (urinary 8OH-dG); format: in vivo; details: GK rats, 0.1% by weight in feed
Procedure: as §1
The oxidative stress lessening effect of each of reduced and oxidized coenzyme Q10 in vivo was evaluated by using GK rats with spontaneous diabetes which induced spleen tissue denaturation due to oxidative stress in vivo. A feed (CE-2, produced by CLEA JAPAN, INC.) containing 0.1% by weight of reduced coenzyme Q10 (containing about 2% by weight of oxidized coenzyme Q10) or oxidized coenzyme Q10 was freely given to GK rats (5-week old, male, n=4 in each group). In a control group, the feeds not containing coenzyme Q10 was freely given to the rats. 2 weeks and 4 weeks after, urine was collected, and the amount of urinary 8OH-dG was determined by the same method as in Example 1. […] In the oxidized coenzyme Q10 administration group, the amount of urinary 8OH-dG measured 2 weeks after the administration was decreased to 58% of the control group, and the amount of urinary 8OH-dG measured 4 weeks after the administration was deceased to 52% of the control group.
The oxidative stress lessening effect of a typical antioxidant, vitamin E, was evaluated by using GK rats in the same test system as in Example 2. Like coenzyme Q10, vitamin E was mixed with a feed at a ratio of 0.1% by weight, and the resulting foodstuff was freely given to the GK rats. 2 weeks and 4 weeks after the feeding, the amount of urinary 8OH-dG was determined. […] In comparison to the coenzyme Q10 administration group of Example 2, 2 weeks after, the decreasing effect in Reference Example 1 was lower the effects of both the reduced form and the oxidized form in Example 2, and 4 weeks after, the effect was at the same level as that of the oxidized coenzyme Q10 and lower than that of the reduced coenzyme Q10 in Example 2.

urinary 8OH-dG [4] = experiment: Oxidative stress lessening effect on normal rat (urinary 8OH-dG by ELISA); format: in vivo; details: SD rats, oral soybean oil solution, 100 mg/kg/day for 4 weeks
Procedure: as §1
A soybean oil solution of oxidized coenzyme Q10 or reduced coenzyme Q10 (containing about 2% of oxidized coenzyme Q10) was orally administered to SD rats (6-week old, male) in a dose of 100 mg/kg/day for 4 weeks. 4 weeks after, urine was collected, and the amount of urinary 8OH-dG was determined by an ELISA kit (Japan Institute for the Control of Aging).

[5] = system: spleen tissues of GK rats; experiment: Tissue protecting effect on spontaneously diabetic rat (histopathological evaluation of spleen tissue denaturation); format: in vivo; details: oral administration for 7 weeks, spleen histopathology, four examples per group
Procedure: The protective effect of each of oxidized coenzyme Q10 and reduced coenzyme Q10 (containing about 2% by weight of oxidized coenzyme Q10) on denaturation of the spleen tissues of GK rats by using the same test system as in Example 1. As a control, a soybean oil solution not containing coenzyme Q10 was orally administered. After the coenzyme Q10 was administered for 7 weeks, the spleen was extracted from each rat, and the degree of tissue denaturation was histopathologically evaluated.
The tissue protecting effect of vitamin E was evaluated by the same method as in Example 4.

kidney dialysis patients = details: daily dose of 800 IU; cited from earlier work
[6] = 2 weeks after the administration
[7] = 4 weeks after the administration
[8] = listed as Oxidized coenzyme Q10

Compound	toxic effect in chronic toxicity test (rats)	antioxidative activity in vitro [1]	amount of urinary 8OH-dG relative to control group (urinary 8OH-dG [2]; 0.5% by weight in feed) [%]	amount of urinary 8OH-dG relative to control group (assumed as 100%) (urinary 8OH-dG [3]; [6])	amount of urinary 8OH-dG relative to control group (assumed as 100%) (urinary 8OH-dG [3]; [7])	amount of urinary 8OH-dG relative to solvent control group (assumed as 100%) (urinary 8OH-dG [4])	Number of examples with finding: Islet fibrillation 1+ [5]	Number of examples with finding: Islet fibrillation 2+ [5]	Number of examples with finding: Normal [5]	Number of examples with finding: Islet fibrillation 1+ [5, 8]	Number of examples with finding: Islet fibrillation 2+ [5, 8]	amount of urinary 8OH-dG relative to control group (urinary 8OH-dG [2]; 0.02% by weight in feed) [%]	amount of urinary 8OH-dG relative to control group (urinary 8OH-dG [2]; 0.1% by weight in feed) [%]	Number of examples with finding: Islet fibrillation 1+ ([5]; listed as Reduced coenzyme Q10)	Number of examples with finding: Islet fibrillation 2+ ([5]; listed as Reduced coenzyme Q10)	increase of risk of brain hemorrhage as a side effect (kidney dialysis patients) [%]	patients died from hemorrhagic diseases (kidney dialysis patients)	Number of examples with finding: Islet fibrillation 1+ ([5]; listed as VE)	Number of examples with finding: Islet fibrillation 2+ ([5]; listed as VE)
COC1=C(OC)C(=O)C(C/C=C(\C)CC/C=C(\C)CC/C=C(\C)CC/C=C(\C)CC/C=C(\C)CC/C=C(\C)CC/C=C(\C)CC/C=C(\C)CC/C=C(\C)CCC=C(C)C)=C(C)C1=O [coenzyme Q10]	no toxic effect was observed	–	–	–	–	–	–	–	–	–	–	–	–	–	–	–	–	–	–
COC1=C(OC)C(=O)C(C/C=C(\C)CC/C=C(\C)CC/C=C(\C)CC/C=C(\C)CC/C=C(\C)CC/C=C(\C)CC/C=C(\C)CC/C=C(\C)CC/C=C(\C)CCC=C(C)C)=C(C)C1=O [oxidized coenzyme Q10]	–	exhibits no antioxidative activity	78	58%	52%	about 60%	two	two	0	2	2	–	–	–	–	–	–	–	–
COc1c(O)c(C)c(C/C=C(\C)CC/C=C(\C)CC/C=C(\C)CC/C=C(\C)CC/C=C(\C)CC/C=C(\C)CC/C=C(\C)CC/C=C(\C)CC/C=C(\C)CCC=C(C)C)c(O)c1OC [reduced coenzyme Q10]	–	exhibits antioxidative activity in vitro	56	about 40%	kept at the same level	about 40%	tree	one	0	–	–	82	73	3	1	–	–	–	–
vitamin E [reference compound]	–	–	–	about 80%	51%	–	two	two	0	–	–	–	–	–	–	63	two	2	2
